This is an account of results in patent publication US9573911B2, “Diphosphate mimetics and uses thereof” (President and Fellows of Harvard College, priority 2011, dated 2017).

Holding throughout (type): biochemical
For test [1], the target named is T1, OGT (Homo sapiens, UniProt O15294).
T1 construct: hOGT4.5 construct (spanning residues 313-1031 based on the numbering of the full length human protein); made in house
T1 sequence (O15294 313-1031 isoform O15294-3): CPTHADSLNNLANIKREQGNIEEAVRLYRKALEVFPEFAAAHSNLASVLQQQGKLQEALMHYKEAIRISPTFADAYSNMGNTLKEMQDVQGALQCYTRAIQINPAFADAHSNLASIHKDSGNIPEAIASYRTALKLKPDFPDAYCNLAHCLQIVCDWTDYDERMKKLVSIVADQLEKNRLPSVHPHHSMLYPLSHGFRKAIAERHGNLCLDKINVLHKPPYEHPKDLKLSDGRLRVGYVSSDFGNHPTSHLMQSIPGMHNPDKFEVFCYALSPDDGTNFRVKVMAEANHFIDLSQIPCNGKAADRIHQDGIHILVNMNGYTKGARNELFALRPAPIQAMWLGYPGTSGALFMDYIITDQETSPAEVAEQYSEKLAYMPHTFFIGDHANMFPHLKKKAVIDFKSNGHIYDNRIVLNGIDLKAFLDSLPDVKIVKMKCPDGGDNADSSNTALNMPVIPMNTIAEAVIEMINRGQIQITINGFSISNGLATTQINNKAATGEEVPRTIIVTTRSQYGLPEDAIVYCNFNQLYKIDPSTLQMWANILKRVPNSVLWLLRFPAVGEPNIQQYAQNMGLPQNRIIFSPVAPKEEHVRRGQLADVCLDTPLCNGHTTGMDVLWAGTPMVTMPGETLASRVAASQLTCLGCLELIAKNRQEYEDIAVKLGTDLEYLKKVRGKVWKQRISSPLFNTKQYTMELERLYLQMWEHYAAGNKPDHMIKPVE
Description: Time-dependent inactivation of OGT with BZX compounds. From the text: Compound (1) was identified in a high-throughput screen of 65,000 compounds (FIG. 1). See, e.g., Gross et al., J. Am. Chem. Soc. (2005) 127:14588-14589. It contains a dicarbamate moiety that links two aromatic groups. This compound features a conjugated chemical structure and both carbamate carbonyls are potentially reactive. See, e.g., Alexander et al., Chem. Biol. (2005) 12:1179-1187. […] A small panel of related compounds was made from commercially available building blocks in order to identify structural features that might improve potency. Time-dependent inactivation studies were carried out in which OGT was preincubated with a three-fold excess of each compound for 5 min, and the mixture was then diluted 100-fold into buffer containing UDP-^14C-GlcNAc and the well-characterized peptide substrate, CKII. See, e.g., Kreppel et al., J. Biol. Chem. (1999) 274:32015-32022). Enzyme activity was measured using a previously developed peptide capture assay. See, e.g., Gross et al., J. Am. Chem. Soc. (2005) 127:14588-14589.
Each BZX compound (7.5 μM) was preincubated with 5 μM OGT in reaction buffer (125 mM NaCl, 1 mM EDTA, 20 mM potassium phosphate, pH 7.4, and 500 μM tris(hydroxypropyl)phosphine (THP)) at room temperature for different amount of time, then diluted 100-fold, mixed with substrates (6 μM UDP-^14C-GlcNAc and 500 μM CKII peptide (KKKYPGGSTPVSSANMM)) and allowed to react for another 2 h. Enzyme activity was tested with the peptide capture assay as previously reported. See, e.g., Gross et al., J. Am. Chem. Soc. (2005) 127:14588-14589. The final volume of each reaction was 20 μl, and the experiments were conducted in triplicate. The activities of OGT mutants were also tested in triplicate as previously reported. See, e.g., Gross supra.

The target in another test is T2, MST1R (RON) (Homo sapiens, UniProt Q04912).
T2 construct: purchased Invitrogen
T2 sequence (Q04912 25-1400): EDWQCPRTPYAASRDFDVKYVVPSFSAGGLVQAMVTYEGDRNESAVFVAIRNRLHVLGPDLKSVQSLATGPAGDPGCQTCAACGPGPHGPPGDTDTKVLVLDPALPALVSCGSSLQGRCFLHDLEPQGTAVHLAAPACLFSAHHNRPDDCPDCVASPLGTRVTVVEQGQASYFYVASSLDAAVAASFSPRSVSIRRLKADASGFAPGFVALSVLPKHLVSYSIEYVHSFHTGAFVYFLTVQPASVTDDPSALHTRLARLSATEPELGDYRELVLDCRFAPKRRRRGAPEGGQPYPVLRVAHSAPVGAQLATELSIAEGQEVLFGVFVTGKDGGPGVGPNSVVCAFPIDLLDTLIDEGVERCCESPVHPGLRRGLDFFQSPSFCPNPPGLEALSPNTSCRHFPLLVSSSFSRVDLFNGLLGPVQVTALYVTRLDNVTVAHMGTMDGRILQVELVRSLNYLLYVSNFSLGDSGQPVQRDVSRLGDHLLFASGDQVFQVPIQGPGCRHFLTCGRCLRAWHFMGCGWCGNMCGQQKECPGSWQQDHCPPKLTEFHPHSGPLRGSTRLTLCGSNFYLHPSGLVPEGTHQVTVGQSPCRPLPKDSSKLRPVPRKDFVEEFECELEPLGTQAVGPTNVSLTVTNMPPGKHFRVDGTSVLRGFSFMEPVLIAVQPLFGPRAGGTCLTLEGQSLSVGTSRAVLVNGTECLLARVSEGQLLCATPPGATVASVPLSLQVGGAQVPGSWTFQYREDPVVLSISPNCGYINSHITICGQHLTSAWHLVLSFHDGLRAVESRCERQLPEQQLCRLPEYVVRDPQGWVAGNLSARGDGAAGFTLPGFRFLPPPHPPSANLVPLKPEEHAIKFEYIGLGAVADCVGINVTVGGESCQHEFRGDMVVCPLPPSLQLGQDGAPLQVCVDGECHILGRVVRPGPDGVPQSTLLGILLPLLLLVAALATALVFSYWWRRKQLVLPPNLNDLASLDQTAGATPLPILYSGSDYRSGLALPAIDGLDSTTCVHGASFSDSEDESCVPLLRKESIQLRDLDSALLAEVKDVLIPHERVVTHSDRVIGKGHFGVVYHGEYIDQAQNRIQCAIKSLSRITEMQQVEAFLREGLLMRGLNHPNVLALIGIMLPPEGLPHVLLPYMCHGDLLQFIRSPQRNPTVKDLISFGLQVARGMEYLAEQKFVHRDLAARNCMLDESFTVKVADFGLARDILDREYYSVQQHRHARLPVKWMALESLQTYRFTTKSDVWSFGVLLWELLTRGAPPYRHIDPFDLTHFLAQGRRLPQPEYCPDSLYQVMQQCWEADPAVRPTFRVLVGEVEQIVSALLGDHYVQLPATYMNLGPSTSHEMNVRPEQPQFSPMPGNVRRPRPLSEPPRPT
Description: Kinase profiling, Invitrogen Z'-LYTE. Particulars: Table 2. As to the method: (§1) Kinase profiling was conducted using Invitrogen Z'-LYTE screening protocol and assay conditions found at www.invitrogen.com. Compound (2) inhibited PLK1 completely at 5 μM.

A further test addresses T3, FGR (Homo sapiens, UniProt P09769).
T3 construct: purchased Invitrogen
Description: Kinase profiling, Invitrogen Z'-LYTE. The note with it: Table 2. The procedure:
as §1

Another test concerns the target T4, MAPK12 (p38 gamma) (Homo sapiens, UniProt P53778).
T4 construct: purchased Invitrogen
T4 sequence (P53778 1-367): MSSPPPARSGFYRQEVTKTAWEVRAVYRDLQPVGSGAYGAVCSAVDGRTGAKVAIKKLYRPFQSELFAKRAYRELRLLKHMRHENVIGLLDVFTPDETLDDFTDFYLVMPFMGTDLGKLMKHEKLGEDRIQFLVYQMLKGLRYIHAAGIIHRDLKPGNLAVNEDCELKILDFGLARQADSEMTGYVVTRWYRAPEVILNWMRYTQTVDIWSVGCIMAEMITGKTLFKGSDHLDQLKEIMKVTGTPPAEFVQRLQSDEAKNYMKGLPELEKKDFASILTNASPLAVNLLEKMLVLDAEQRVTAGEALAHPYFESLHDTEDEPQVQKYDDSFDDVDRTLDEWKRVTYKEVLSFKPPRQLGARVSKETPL
Description: Kinase profiling, Invitrogen Z'-LYTE. Particulars: Table 2. As to the method: as §1

The next test concerns the target T5, MET M1250T (Homo sapiens, UniProt P08581, M1250T).
T5 construct: purchased Invitrogen
Description: Kinase profiling, Invitrogen Z'-LYTE. Particulars: Table 2. As to the method: as §1

Test [2] concerns the target T1, OGT. Description: Western blot of BZX inhibitor treated cell lysates (O-GlcNAcylation by added OGT). Particulars: MCF-10A ErbB2 cell lysates; OGT 2 μM, UDP-GlcNAc 1 mM, BZX inhibitors 200 μM. The procedure:
[…] ErbB2 cells were maintained in DMEM/F12 (Invitrogen) supplemented with 5% horse serum (Invitrogen), 20 ng/ml EGF (Peprotech), 10 μg/ml insulin (Sigma), 100 ng/ml cholera toxin (Sigma), […] hydrocortisone (Sigma), 50 U/ml penicillin, and 50 μg/ml streptomycin (Invitrogen) to reach 70% confluence. The cells were then grown for another 9 hours in glucose starvation medium (DMEM-no glucose (Invitrogen) supplemented with 1% horse serum, 50 U/ml penicillin and 50 μg/ml streptomycin) before harvest. The cell lysates, prepared as described above, were divided into four tubes with each tube containing the same amount of protein. Nothing was added to tube I; OGT (2 μM) and DMSO (1%) were added into tube II; OGT (2 μM) and (2) (200 μM) were added to tube III; OGT (2 μM) and 1 (200 μM) were added to tube IV. The four samples were incubated at room temperature for 30 min before adding UDP-GlcNAc (1 mM) and incubated for another 2 hours. After incubation, all samples were analyzed with SDS-PAGE and a Western blot was carried out using the anti-O-GlcNAc antibody as described above.
A general note: In western blotting, separated proteins are transferred to a membrane and probed.

T3 sequence (P09769 whole entry): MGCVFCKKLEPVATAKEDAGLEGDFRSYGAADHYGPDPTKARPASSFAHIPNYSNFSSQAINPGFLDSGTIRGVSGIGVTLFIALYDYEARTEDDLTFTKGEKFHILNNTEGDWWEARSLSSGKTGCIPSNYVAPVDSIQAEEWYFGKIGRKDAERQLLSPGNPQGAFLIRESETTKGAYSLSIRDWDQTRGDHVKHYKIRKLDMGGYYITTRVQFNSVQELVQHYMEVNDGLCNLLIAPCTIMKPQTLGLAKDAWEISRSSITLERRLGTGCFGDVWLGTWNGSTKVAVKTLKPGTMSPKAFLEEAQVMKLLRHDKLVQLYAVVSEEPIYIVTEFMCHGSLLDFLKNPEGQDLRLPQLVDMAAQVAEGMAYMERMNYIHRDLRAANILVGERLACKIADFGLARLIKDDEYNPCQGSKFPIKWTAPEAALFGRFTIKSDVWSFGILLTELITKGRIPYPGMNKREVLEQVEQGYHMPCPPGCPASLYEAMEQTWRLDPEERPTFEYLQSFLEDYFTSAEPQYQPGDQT
T5 sequence (P08581 25-1390 M1250T): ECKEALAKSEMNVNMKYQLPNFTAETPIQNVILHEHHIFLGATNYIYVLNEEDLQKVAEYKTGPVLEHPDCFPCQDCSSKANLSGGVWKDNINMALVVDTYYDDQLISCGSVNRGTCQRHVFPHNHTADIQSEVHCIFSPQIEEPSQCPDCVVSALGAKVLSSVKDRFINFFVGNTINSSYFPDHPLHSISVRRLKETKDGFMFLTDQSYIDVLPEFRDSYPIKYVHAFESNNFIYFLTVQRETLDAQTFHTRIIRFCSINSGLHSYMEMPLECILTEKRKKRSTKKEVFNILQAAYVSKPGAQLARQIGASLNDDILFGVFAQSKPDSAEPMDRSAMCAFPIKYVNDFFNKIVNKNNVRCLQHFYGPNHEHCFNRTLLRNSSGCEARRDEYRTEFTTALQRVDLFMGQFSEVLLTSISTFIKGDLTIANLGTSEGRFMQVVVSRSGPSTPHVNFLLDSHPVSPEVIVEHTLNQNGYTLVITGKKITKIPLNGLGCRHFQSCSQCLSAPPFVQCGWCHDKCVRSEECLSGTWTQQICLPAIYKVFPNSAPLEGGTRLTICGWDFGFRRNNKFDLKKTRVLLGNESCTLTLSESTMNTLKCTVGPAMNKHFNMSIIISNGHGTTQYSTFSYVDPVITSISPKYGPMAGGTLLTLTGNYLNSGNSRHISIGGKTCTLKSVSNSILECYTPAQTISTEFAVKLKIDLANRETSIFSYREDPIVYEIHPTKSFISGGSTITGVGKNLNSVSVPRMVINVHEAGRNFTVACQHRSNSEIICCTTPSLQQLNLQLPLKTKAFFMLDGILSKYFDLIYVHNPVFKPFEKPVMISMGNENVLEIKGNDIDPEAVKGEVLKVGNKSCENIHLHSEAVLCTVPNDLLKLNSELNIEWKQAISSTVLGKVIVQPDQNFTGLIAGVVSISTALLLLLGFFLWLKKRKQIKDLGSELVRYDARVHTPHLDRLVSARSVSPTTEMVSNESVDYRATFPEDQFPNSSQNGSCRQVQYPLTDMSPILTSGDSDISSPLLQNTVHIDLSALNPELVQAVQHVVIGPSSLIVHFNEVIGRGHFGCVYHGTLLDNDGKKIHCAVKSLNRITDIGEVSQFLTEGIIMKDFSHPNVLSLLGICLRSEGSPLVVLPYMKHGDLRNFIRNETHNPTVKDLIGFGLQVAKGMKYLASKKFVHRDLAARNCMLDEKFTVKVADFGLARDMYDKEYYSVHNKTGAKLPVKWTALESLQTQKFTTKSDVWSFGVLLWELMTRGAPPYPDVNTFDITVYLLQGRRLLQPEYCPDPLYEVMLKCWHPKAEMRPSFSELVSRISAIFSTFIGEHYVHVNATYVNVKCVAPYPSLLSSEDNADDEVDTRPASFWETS

Turning to `COc1ccc(OC(=O)n2c(=O)oc3cc(C(C)=O)ccc32)cc1` [Compound 2], the “inactivation time course of OGT” value on OGT [1] (1.5:1 inhibitor:enzyme ratio) was “fully inactivated OGT”. Further, the “OGT inactivation in the presence of UDP-GlcNAc in the preincubation mixture” value on OGT [1] (OGT 5 μM, compound 20 μM, UDP-GlcNAc 40 μM, 2-20 min) was “UDP-GlcNAc reduced the rate of inactivation”. Moreover, on OGT [1] (near 1:1 ratio), the “time to full inactivation of OGT” value is listed as no more than 5 min. The “% Inhibition Point 1” value at MST1R (RON) was −258%; at FGR, 21%; at MAPK12 (p38 gamma) it was −203%; at MET M1250T it was −113%. Also, the “% Inhibition Point 2” value on MST1R (RON) was −245%; at FGR it was 21%; on MAPK12 (p38 gamma), −203%; at MET M1250T, −143%. Moreover, the “% Inhibition mean” value is given as −252% at MST1R (RON), 21% on FGR, −203% at MAPK12 (p38 gamma) and −128% on MET M1250T. Besides, the “inhibition of OGT activity (O-GlcNAcylation) in cell lysates” value against OGT [2] was “more potent inhibitor of OGT activity than compound (1)”.
